Key:
[1] = In vivo toxicity, seven day administration to mice; conditions: seven consecutive days, up to 200 mg/kg
Procedure: Five female nude mice each were treated with 200 mg/kg, 100 mg/kg #1781 in 15 μl DMSO or 15 μl DMSO daily for seven days. Mice were observed daily for signs of toxicity and weighed every other day for total of 15 days and then necropsy was performed. The average body of each group is plotted against the time.
To study toxicity effects, mice were treated with various doses of compound #1781 or vehicle.

[2] = system: CHOP mRNA; test: Endogenous CHOP mRNA by real-time PCR in KLN-tTA/pBISA-DL(ATF-4) cells; format: cell-based, mouse; conditions: siRNA to HRI, also CRL-2813 cells
Source text: (§1) For example, reducing amount of the ternary complex increases translation of ATF-4, which results in elevated expression of CHOP mRNA and protein. Therefore, expression of endogenous CHOP mRNA and CHOP protein in KLN-tTA/pBISA-DL^(ATF-4) cells were utilized as secondary assays to validate N,N′-diarylurea compounds as modifiers of the eIF2.GTP.Met-tRNAi ternary complex. […] To rule out the possibility that the activity of N,N′-diarylurea compounds was confined to a single cell type, the effects of these compounds on the ternary complex assay and the expression of CHOP mRNA was assayed in CRL-2351, PC-3, CRL-2813 human breast, prostate, and melanoma cancer cell lines respectively. For the reporter gene assay, the three human cell lines were co-transfected with tTA expression vector and the pBISA-DL^(ATF-4) dual luciferase expression vector shown in FIG. 6. […] The expression of CHOP mRNA was assayed by real time PCR in the same cell lines treated with 5 or 20 μM of each compound.
Real time PCR: For real time PCR, total RNA was extracted with TaqMan Gene Expression Cells-to-Ct™ Kit (Applied Biosystems, Branchburg, N.J.) according to manufacturer's protocol. Contaminating DNA was removed by DNase I treatment. […] To calibrate the results, all the transcripts quantities were normalized to 18S rRNA (was 18S ribosomal RNA-like mRNA in mouse). […]

[3] = target: T1, HRI (Homo sapiens, UniProt Q9BQI3); test: Phosphorylation of eIF2α in CRL-2813 human melanoma cell lysate; format: biochemical; conditions: CRL-2813 cell lysate, 30 minutes at 37° C.
T1 construct: endogenous in cells; host or cells: CRL-2813 human melanoma cells (lysate prepared in house)
T1 sequence (Q9BQI3 whole entry): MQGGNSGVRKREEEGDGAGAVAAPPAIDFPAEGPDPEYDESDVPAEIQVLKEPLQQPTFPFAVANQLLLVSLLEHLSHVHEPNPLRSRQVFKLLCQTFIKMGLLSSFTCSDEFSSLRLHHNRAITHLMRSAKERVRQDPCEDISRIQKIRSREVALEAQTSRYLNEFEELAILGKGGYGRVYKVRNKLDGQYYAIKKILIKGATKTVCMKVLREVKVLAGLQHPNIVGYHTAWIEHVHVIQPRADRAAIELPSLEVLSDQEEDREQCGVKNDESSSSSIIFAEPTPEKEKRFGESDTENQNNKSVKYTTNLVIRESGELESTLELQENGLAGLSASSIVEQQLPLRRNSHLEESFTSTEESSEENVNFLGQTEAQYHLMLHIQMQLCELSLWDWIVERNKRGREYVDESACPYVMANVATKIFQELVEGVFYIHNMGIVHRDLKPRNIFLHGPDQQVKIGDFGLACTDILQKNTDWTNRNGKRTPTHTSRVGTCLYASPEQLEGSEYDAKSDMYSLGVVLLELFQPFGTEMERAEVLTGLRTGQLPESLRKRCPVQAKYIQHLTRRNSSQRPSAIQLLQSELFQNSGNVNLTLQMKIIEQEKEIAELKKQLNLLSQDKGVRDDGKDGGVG
Procedure: (§2) FIGS. 14A and 14B depict that N,N′-diarylurea compounds activate HRI in cell free lysates. A and B) Heme supplemented rabbit reticulocyte (a) or in-house prepared human melanoma cancer cell lysates (b) were incubated with the indicated concentration of compound 1781 for 30 minutes at 37° C. and phosphorylation of eIF2α was determined by Western blot analysis.
(§3) Compound #1781 was added to lysates of CRL-2813 cells or heme-supplemented rabbit reticulocytes and phosphorylation of eIF2α by Western blot was determined.

[4] = system: eIF2α; test: Phosphorylation of eIF2α in cells by Western blot (KLN-tTA/pBISA-DL(ATF-4), PC-3, CRL-2813); format: cell-based, mouse; human; conditions: CRL-2813, HRI siRNA
Source text: The amount of the eIF2.GTP.Met-tRNAi complex can be reduced by phosphorylation of eIF2α, reduced expression of Met-tRNAi, or eIF2α phosphorylation independent reduction in the activity of eIF2B, the eIF2 guanine nucleotide exchange factor. To determine which of these was the case, the effect of active N,N′-diarylureas on the phosphorylation of eIF2α was studied. […] To determine if the phosphorylation of eIF2α was responsible for reduced amount of the ternary complex in the cells treated with N,N′-diarylurea compounds, previously generated PC-3 human prostate cancer cell lines in which expression of endogenous eIF2α was replaced with recombinant wild type (WT) or non-phosphorylatable eIF2α-S51A were utilized.
Western blotting: Cell extracts were separated by SDS-PAGE and probed with anti-phosphoserine-51-eIF2 cc (PS51-eIF2α), anti-total eIF2α-specific antibodies […] (Biosource International, Hopkinton, Mass.), anti-CHOP, or anti β-actin (Santa Cruz Biotechnology, CA) as described.

[5] = system: eIF2.GTP.Met-tRNAi ternary complex; test: Ternary complex assay: dual luciferase F-luc/R-luc ratio in KLN-tTA/pBISA-DL(ATF-4) cells (HTS screen, 96-well hit confirmation, dose response); format: cell-based, mouse; conditions: siRNA to PKR, PERK, GCN2; also CRL-2813 cells
Source text: For assay development, a bi-directional plasmid was designed in which a common promoter/enhancer complex drives the transcription of firefly luciferase (F-luc) ORF fused to the 5′ untranslated region (UTR) of ATF-4, and of the renilla luciferase (R-luc) ORF fused to a 90-nucleotide 5′ UTR derived from the plasmid (FIG. 6A). Because the tetracycline-regulated transactivator ((tTA), required for driving transcription from this vector) is not normally expressed in the mammalian cells, stable KLN cancer cells were constructed that expressed tTA (KLN-tTA).
The KLN-tTA colonies that drove expression of reporter genes from pBISA-DL plasmid were selected by transient transfection and dual luciferase assay. One of these KLN-tTA cell lines was transfected with the pBISA-DL^(ATF-4) expression vector, stable colonies were selected by dual luciferase assay and expanded. To determine if reduced availability of the eIF2.GTP.Met-tRNAi ternary complex increased the translation of firefly luciferase and decreased translation of renilla luciferase, selected KLN-tTA/pBISA-DL^(ATF-4) colonies were treated with thapsigargin (TG) or tunicamycin (TU), two agents known to cause phosphorylation of eIF2α.
This assay was then adapted for high throughput screening in 96 and 384 well plates. This was done by evaluating the cell density, length of exposure to compounds, DMSO tolerance and optimum firefly and renilla substrate. We then challenged these cells with thapsigargin or DMSO. […] Cell-based assays usually have higher variation than homogeneous in vitro assays due to position effect in the plate, and other variables associated with handling of cells and the plates.
Screening was conducted in 384 well white opaque plates (Nalge Nunc), 100 μl volume RPMI+10% fetal bovine serum. Cells were plated at the sub-confluent density of 10,000 cells/well, and allowed to attach for a period of 16-18 hours at 37° C., 5% CO2. Compounds were added as 1 μl of a 1 mM DMSO stock solution for a final screening concentration of […] using low-volume tips for transfer (Molecular Bioproducts). Cells were then incubated in the presence of compound for an additional sixteen hours, again at 37° C., 5% CO2. Following incubation 70 μl of the culture medium was removed from each well to allow for reagent addition and plates were allowed to equilibrate to room temperature for thirty minutes. Firefly luciferase reporter activity was then read by the addition of thirty microliters of Dual Glo Luciferase reagent (Promega), followed by one hour incubation at room temperature to allow for adequate signal buildup. Luminescence counting was conducted on a Microbeta Trilux using a 1 second read time. Renilla luciferase reporter activity was measured following addition of 30 μl Stop and Glo Luciferase reagent (Promega) and incubation identical to the one carried out for the firefly luciferase one.
Compound scores were interpreted as firefly luciferase activity divided by renilla luciferase activity, normalized to the plate's DMSO control. […] All data analysis was conducted using the BioAssay HTS software package (CambridgeSoft).
102,709 compounds in the NCI Open Chemical Repository were then screened using this HTS assay. […] Initial hits were confirmed by repeating the same dual luciferase assay in 96 well plates. Briefly, 20,000 cells/well were plated in triplicate for each concentration (10, 5 and 2.5 μM) of the compounds.

[6] = target: T2, HRI (Oryctolagus cuniculus, UniProt P33279); test: Phosphorylation of eIF2α in heme-supplemented rabbit reticulocyte lysate; format: biochemical; conditions: 30 minutes at 37° C.
T2 construct: from tissue; host or cells: rabbit reticulocyte lysate, heme supplemented
T2 sequence (P33279 whole entry): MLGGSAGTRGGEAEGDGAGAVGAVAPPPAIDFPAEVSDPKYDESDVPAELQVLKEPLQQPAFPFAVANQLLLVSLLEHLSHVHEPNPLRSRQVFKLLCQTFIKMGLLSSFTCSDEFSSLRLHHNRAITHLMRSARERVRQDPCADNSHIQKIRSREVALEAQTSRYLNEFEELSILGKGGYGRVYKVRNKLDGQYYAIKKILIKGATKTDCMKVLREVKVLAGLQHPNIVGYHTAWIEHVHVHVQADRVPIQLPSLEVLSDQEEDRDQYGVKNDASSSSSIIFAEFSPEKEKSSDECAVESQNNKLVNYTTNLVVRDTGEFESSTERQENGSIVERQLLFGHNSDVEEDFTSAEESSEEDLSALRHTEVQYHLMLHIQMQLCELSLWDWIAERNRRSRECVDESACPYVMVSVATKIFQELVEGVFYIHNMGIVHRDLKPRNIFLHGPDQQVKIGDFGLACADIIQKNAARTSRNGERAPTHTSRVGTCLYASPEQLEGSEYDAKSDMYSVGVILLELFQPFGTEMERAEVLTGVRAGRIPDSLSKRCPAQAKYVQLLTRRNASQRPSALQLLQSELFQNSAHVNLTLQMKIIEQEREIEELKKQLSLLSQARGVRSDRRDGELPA
Procedure: as §2, §3

[7] = Solubility observed at purification; format: physicochemical; conditions: solvents tried for purification
Procedure: Because it could not be purified, this compound was removed from the structure-activity relationship (SAR) study.
As another non-limiting example, 3,4-dichlorophenylisocyanate (250 mg, 1.330 mmol) and 2-amino-4-hydroxy-6-methylpyrimidine (166 mg, 1.330 mmol) were used following the general procedure E to synthesize 28.

[8] = system: eIF2.GTP.Met-tRNAi ternary complex; test: ATF-4 assay (firefly/renilla luciferase ratio) in CRL-2351 cell line; format: cell-based, human
Source text: as §1
Stable and transient transfection: Cells were seeded at the density of 10^5 in 60-mm (stable transfection) or 10^4 cells per well of 96-well plate (transient transfection) plates and transfected one day later using the Qiagen Transfectamine transfection kit. For selection of stable cell lines, transfected cells were transferred to 100-mm plates and selected with appropriate antibiotics.
Dual luciferase assay: Cells or minced tumors expressing firefly and renilla luciferases were lysed and the extracts assayed with a glow type dual luciferase assay kit, per manufacturer's instruction (Promega Inc., Madison, Wis.).

[9] = system: CRL-2813 human melanoma cells; test: Cell proliferation SRB assay, CRL-2813; format: cell-based; conditions: CRL2813, 2813 cells, read-out: IC50 (μM) by SRB assay, 2813
Procedure: Reduced availability of the ternary complex causes inhibition of translation initiation and thereby of cell proliferation. […] The effects of N,N′-diarylureas on the proliferation KLN mouse squamous cell carcinoma, CRL-2351 human breast, CRL-2813 human melanoma, A549 human lung and PC-3 human prostate cancer cell lines were tested. […]
(§4) Cell Growth Assay: Cell Growth was Measured by the SRB Assay.

[10] = system: CRL-2351 human breast cancer cells; test: Cell proliferation SRB assay, CRL-2351; format: cell-based; conditions: Homo sapiens; 2351 cells; read-out: IC50 (μM) by SRB assay, 2351
Procedure: (§5) Reduced availability of the ternary complex causes inhibition of translation initiation and thereby of cell proliferation. […] The effects of N,N′-diarylureas on the proliferation KLN mouse squamous cell carcinoma, CRL-2351 human breast, CRL-2813 human melanoma, A549 human lung and PC-3 human prostate cancer cell lines were tested.
as §4

[11] = system: KLN mouse squamous cell carcinoma cells; test: Cell proliferation SRB assay, KLN; format: cell-based; conditions: KLN cells, read-out: IC50 (μM) by SRB assay, KLN
Procedure: as §5, §4

Solubility [7]	Cmax ([8]; read-out: ATF-4 Cmax (μM): concentration corresponding to the maximal activity) [µM]	IC50 [9] [µM]	IC50 [10] [µM]	IC50 [11] [µM]	Structure (SMILES)	Effect on weight gain or food consumption of mice [1]	Induction of CHOP mRNA by the compound after knocking down HRI [2]	Phosphorylation of eIF2α in cell lysates [3]	Induction of eIF2α phosphorylation by the compound after silencing of HRI [4]	Induction of F-luc/R-luc ratio by the compound after knocking down PKR, PERK or GCN2 [5]	Phosphorylation of eIF2α in cell lysates [6]	maximal fold induction ([8]; Homo sapiens, read-out: ATF-4 Amax: maximal activity, ratio of firefly over renilla luciferase expression)	EC (activity threshold of 5) ([8]; Homo sapiens, read-out: ATF-4 C[5] (μM): concentration corresponding to an activity threshold of 5) [µM]
–	–	–	–	–	O=C(Nc1ccc(Cl)c(Cl)c1)Nc1ccc2nnsc2c1 [#1781]	no adverse effect	abrogated	caused phosphorylation of eIF2α	reduced	no effect	caused phosphorylation of eIF2α	–	–
not soluble in any solvent	40	0.7	0.7	15	O=C(Nc1cc(C(F)(F)F)cc(C(F)(F)F)c1)Nc1ncccc1O [Compound 28]	–	–	–	–	–	–	5	40

Source: patent US9421211B2, “N,N′-diarylurea compounds and N,N′-diarylthiourea compounds as inhibitors of translation initiation” (President and Fellows of Harvard College, priority 2009, dated 2016)
